Measurements published in patent publication US11608319B2, “Beta-amino acid derivative, kinase inhibitor and pharmaceutical composition containing the same, and method for performing an in vivo related application that benefits from the inhibition of a kinase” (Industrial Technology Research Institute, priority 2019, dated 2023).
Counter-ions that a name gives are not always drawn. Like-named read-outs stand apart in the source and are kept apart here.

Columns and labels:
ROCK1 = ROCK1 (Homo sapiens (Human), UniProt Q13464); assay: biochemical
Chain of ROCK1 (Q13464 whole entry, species assumed): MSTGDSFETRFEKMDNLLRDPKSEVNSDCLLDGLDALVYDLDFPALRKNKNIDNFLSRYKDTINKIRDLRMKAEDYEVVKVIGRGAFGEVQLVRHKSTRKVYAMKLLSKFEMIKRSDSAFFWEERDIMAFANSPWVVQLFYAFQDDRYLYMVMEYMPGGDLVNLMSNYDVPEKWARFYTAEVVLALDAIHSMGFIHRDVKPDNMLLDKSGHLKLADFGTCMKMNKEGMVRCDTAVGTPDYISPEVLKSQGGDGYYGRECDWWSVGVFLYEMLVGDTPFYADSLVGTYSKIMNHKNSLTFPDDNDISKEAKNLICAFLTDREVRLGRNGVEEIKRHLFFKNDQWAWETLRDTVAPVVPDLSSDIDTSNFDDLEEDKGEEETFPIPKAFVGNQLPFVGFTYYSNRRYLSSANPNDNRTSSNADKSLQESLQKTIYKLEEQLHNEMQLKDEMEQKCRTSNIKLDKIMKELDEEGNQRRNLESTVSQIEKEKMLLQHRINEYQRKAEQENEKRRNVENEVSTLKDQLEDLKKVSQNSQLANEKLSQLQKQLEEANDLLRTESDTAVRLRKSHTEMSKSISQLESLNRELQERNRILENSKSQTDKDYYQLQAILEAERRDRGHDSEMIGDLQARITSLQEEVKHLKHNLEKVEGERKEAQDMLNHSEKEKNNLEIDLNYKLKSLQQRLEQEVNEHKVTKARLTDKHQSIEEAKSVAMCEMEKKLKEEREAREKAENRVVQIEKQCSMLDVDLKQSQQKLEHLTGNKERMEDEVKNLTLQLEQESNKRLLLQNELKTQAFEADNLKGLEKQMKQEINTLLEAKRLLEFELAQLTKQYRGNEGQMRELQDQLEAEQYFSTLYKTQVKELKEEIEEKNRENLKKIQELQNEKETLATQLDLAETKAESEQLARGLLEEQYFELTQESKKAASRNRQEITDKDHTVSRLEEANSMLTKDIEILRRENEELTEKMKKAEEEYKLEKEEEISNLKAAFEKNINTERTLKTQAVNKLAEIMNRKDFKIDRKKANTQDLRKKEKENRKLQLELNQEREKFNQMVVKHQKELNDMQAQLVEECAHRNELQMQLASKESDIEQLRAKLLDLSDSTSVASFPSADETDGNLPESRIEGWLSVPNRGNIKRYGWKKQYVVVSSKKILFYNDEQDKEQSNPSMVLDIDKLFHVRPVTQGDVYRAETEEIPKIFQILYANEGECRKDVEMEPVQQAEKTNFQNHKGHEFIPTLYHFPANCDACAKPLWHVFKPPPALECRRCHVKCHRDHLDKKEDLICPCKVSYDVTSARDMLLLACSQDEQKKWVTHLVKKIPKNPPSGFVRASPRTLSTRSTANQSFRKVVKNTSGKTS

[1] = system: rabbit eyes with normal intraocular pressure; assay: Evaluation of the effect of decreasing intraocular pressure in a model of rabbit with normal intraocular pressure; type: in vivo, New Zealand white rabbit; settings: for Intraocular pressure difference (mmHg): at time point of maximum effect
Description: Evaluation of the Effect of Decreasing Intraocular Pressure in a Model of Rabbit with Normal Intraocular Pressure
Experimental animal: New Zealand white rabbit, male, weighing more than 2 kg. New Zealand white rabbits were purchased from Huijun Farm (Changhua, Taiwan). After a one-week quarantine period, they were raised in MASTER LABORATORY Co., Ltd under the environmental conditions of 16-22° C., 30-70% relative humidity (RH), 8 hours day/16 hours night.
(1) Evaluation of the Effect of Reducing Intraocular Pressure
After weighing 12 New Zealand white rabbits (2.0-4.0 kg) and grouping them (n=3-6 in each group), the white rabbits were fixed with a wrap.

[2] = system: rabbit eyes with normal intraocular pressure; settings: eye drop concentration
Description: The maximal effect (Emax) dose evaluation of the intraocular pressure reduction model in normal rabbit
Animals: Male New Zealand white rabbits (n=7/each group);
Administration: 50 μL of the test compound was instilled in the right eye (dosed eye) and 50 μL of the vehicle (without the test compound) in the left eye (control eye) of each experimental animal. The 3 formulation mentioned above were administered once a day for 3 consecutive days.
The intraocular pressure of each animal was measured by Tono-Vet (iCare) before administration (0 hours) and 2, 4, 6 and 8 hours after administration on Day 1 and Day 3.
The maximum magnitude of the reduction in intraocular pressure %=(Intraocular pressure of the control eye−Intraocular pressure of the dosed eye)/Intraocular pressure of the control eye*100
The data presented in this experiment is the data that has removed the unqualified data (white rabbits with an intraocular pressure difference ≥2 mmHg (n=1) in the two eyes on Day 1 and >5 mmHg in the two eyes before the administration on the Day 3 (n=1) have been removed) and removed the rebound high intraocular pressure (n=3).

MYLK4 = MYLK4 (Homo sapiens (Human), UniProt Q86YV6); assay: Assay for inhibitory effect on MYLK-4, LanthaScreen Eu Kinase Binding Assay
Chain of MYLK4 (Q86YV6 whole entry): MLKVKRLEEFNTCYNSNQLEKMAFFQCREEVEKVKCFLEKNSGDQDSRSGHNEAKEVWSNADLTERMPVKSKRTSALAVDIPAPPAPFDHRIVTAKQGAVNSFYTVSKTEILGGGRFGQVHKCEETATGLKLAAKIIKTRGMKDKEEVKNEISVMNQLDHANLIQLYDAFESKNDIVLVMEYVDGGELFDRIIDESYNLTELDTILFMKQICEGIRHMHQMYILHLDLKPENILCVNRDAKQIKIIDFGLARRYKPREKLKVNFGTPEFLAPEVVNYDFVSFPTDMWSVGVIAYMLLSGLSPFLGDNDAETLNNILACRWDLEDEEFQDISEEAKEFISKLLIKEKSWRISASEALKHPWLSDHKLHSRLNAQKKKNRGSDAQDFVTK

YSK4 = YSK4 (Homo sapiens (Human), UniProt Q56UN5); assay: Assay for inhibitory effect on YSK-4, Z'-LYTE kinase assay; type: biochemical; settings: ATP 5 μM
Chain of YSK4 (Q56UN5 whole entry): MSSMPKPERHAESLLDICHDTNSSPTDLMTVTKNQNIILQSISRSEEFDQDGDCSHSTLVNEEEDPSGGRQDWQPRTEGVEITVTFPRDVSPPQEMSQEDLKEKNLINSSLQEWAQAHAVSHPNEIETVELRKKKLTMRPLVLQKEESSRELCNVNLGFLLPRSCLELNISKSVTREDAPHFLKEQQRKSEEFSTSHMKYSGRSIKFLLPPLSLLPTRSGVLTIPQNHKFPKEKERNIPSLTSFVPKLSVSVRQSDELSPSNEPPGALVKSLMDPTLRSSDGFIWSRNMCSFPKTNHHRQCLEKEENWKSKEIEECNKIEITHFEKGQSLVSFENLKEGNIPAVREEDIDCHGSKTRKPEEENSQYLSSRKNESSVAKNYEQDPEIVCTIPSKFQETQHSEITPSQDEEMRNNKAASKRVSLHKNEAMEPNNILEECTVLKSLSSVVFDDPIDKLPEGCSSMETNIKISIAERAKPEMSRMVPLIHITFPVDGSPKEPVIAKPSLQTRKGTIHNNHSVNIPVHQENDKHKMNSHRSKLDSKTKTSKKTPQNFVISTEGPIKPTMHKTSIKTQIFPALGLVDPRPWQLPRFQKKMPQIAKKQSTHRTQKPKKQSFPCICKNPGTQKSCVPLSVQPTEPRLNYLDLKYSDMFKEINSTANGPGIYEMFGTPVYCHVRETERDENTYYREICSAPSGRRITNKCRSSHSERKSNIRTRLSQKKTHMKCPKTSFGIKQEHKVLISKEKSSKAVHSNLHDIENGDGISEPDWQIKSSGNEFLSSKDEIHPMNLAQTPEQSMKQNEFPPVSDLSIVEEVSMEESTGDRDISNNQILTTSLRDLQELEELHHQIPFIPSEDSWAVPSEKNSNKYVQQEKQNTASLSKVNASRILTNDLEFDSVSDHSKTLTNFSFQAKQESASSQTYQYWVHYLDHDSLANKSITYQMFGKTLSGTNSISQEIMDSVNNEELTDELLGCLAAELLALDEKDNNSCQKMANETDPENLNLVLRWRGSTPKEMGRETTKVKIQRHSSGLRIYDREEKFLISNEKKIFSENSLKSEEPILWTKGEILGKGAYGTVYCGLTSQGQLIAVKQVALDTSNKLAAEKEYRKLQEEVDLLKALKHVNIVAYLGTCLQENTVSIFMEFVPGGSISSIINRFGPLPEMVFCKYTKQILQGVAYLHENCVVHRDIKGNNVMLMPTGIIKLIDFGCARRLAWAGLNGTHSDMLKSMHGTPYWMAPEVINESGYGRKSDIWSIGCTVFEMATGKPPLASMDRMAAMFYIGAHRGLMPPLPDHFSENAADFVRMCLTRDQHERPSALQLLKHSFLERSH
Description: C. Assay for Inhibitory Effect on YSK-4
The experimental procedure referred to the Z′-LYTE Screening Protocol and Assay Conditions provided by ThermoFisher Scientific.
C-1. Material Preparation
Peptide/Kinase Mixture was pre-diluted with Kinase Buffer to 2× working concentration.
ATP solution was pre-diluted with Kinase Buffer (50 mM HEPES pH 7.5, 0.01% BRIJ-35, 10 mM MgCl2, 1 mM EGTA) to 4× working concentration.
The development reagent solution is Novel PKC Lipid Mix, which contains 2 mg/mL Phosphatidyl Serine, 0.2 mg/mL DAG in 20 mM HEPES, pH 7.4 and 0.3% CHAPS, and was pre-diluted 10 fold with development buffer.
1. 100 nL of the above diluted test compound and 2.4 μL of kinase buffer were added to a black 384-well plate (Corning, Cat. NO. 4514), then add 5 μL of the peptide/kinase mixture mentioned above was added thereto, and after that 2.5 μL of ATP solution was added thereto, and the culture plate was shaken for 30 seconds.
2. Next, the culture plate was placed at room temperature and incubated for 60 minutes.
3. After that 5 μL of the development reagent solution was added and the culture plate was shaken for 30 seconds in the dark, and then the data was read and analyzed with a fluorescence plate reader.
In addition, for the kinase, the following control group was prepared and placed on the same culture plate as the kinase:
(1) 0% Phosphorylation Control (100% Inhibition Control)
This control yields 100% cleaved peptide in the Development Reaction.
(2) 100% Phosphorylation Control
A synthetically phosphorylated peptide of the same sequence as the peptide substrate is used as the 100% Phosphorylation Control.
The Phosphorylation percent achieved in a specific reaction well (Experimental group) was calculated based on the 0% Phosphorylation Control and 100% Phosphorylation Control.

[3] = system: rabbit eyes with high intraocular pressure induced by magnetic beads; assay: Model of magnetic bead induced high intraocular pressure rabbit (intraocular pressure >30 mmHg); type: in vivo, New Zealand white rabbit; settings: experiment of Table 13
Text: Evaluation of the effect of reducing intraocular pressure in model of magnetic bead induced high intraocular pressure rabbit (high intraocular pressure model with intraocular pressure >30 mmHg)
Experimental animal: New Zealand white rabbit, male, body weight 2.0-3.0 kg. New Zealand white rabbits were purchased from Huijun Farm (Changhua, Taiwan) before the experiment and were raised in the Animal Center of National Chiao Tung University.
Experimental method: After weighing and grouping male New Zealand white rabbits, the New Zealand white rabbits were anesthetized with Zoletil 50 0.2 mL/kg. 50 μL of magnetic bead solution (50 mg/mL, magnetic bead size of 10 μm) was injected into the left and right anterior eye chambers of the rabbit under anesthesia to make rabbit eyes become a state of high intraocular pressure. After the injection to the anterior chamber of the eye, a strong […] iron magnet ring was immediately put around the eye for 10-20 minutes to make the magnetic beads completely block the drainage tissue of the aqueous humor. After disinfecting the eyeball with antibiotics, moisturizing eye ointment was provided to restore the eyeball, and the intraocular pressure rising was waited. […] The experiment was conducted for 2 consecutive days.

rabbit eyes = assay: Safety margin assay (eye irritation, OECD/OCDE 405); settings: Therapeutic index: 3

| Structure (SMILES) | IC50 (ROCK1) [µM] | maximum effect (Emax) dose in the normal intraocular pressure rabbit model [2] [%] | IC50 (MYLK4) [µM] | IC50 (YSK4) [µM] | also measured |
| --- | --- | --- | --- | --- | --- |
| NCC(C(=O)Nc1ccc(Oc2cn[nH]c2)cc1)c1ccccc1 (centres unmarked) [Compound 18, N-(4-((1H-pyrazol-4-yl)oxy)phenyl)-3-amino-2-phenylpropanamide dihydrochloride] | – | – | – | – | IC50 (ROCK1; read-out: ROCK1 IC50): > 10 µM |
| NCC(Oc1ccccc1)C(=O)Nc1ccc(-c2cn[nH]c2)cc1 (centres unmarked) [Compound 4, N-(4-(1H-pyrazol-4-yl)phenyl)-3-amino-2-phenoxypropanamide dihydrochloride] | 0.001 to 0.01 | 1 | – | – | time point at which maximum effect is achieved ([1]; dose 1%): 2 h; Intraocular pressure difference (mmHg) ([1]; dose 1%): 4.2 mmHg |
| Cc1ccc(C(=O)Oc2ccc(C(CN)C(=O)Nc3ccc(-c4cn[nH]c4)cc3)cc2)c(C)c1 (centres unmarked) [Compound 10, 4-(1-((4-(1H-pyrazol-4-yl)phenyl)amino)-3-amino-1-oxopropan-2-yl)phenyl 2,4-dimethylbenzoate dihydrochloride] | 0.1 to 1 | – | > 1 | > 10 | – |
| NCC(OCc1ccccc1)C(=O)Nc1ccc(-c2cn[nH]c2)cc1 (centres unmarked) [Compound 6, N-(4-(1H-pyrazol-4-yl)phenyl)-3-amino-2-(benzyloxy) propanamidedihydrochloride] | 0.01 to 0.1 | – | 0.1 to 1 | > 10 | – |
| NCC(C(=O)Nc1ccc(-c2cn[nH]c2)cc1)c1ccccc1 (racemic) [Compound 7, N-(4-(1H-pyrazol-4-yl)phenyl)-3-amino-2-phenylpropanamide dihydrochloride] | 0.001 to 0.01 | 1 | 0.01 to 0.1 | > 1 | time point at which maximum effect is achieved ([1]; dose 1%): 4 h; Intraocular pressure difference (mmHg) ([1]; dose 1%): 5.1 mmHg; Maximum intraocular pressure difference (mmHg) ([3]; dose 0.5%): 6.7 ± 1.6 mmHg; Maximum intraocular pressure difference (mmHg) ([3]; dose 1%): 11.8 ± 0.8 mmHg; OECD Score: Chemosis (rabbit eyes): 0; OECD Score: Discharge (rabbit eyes): 1; OECD Score: Redness (rabbit eyes): 1; OECD Score: Total (rabbit eyes): 2 |
| NCC(C(=O)Nc1ccc(-c2cn[nH]c2)cc1)c1ccc(F)cc1 (centres unmarked) [Compound 8, N-(4-(1H-pyrazol-4-yl)phenyl)-3-amino-2-(4-fluorophenyl) propanamide dihydrochloride] | 0.001 to 0.01 | 1 | 0.01 to 0.1 | > 1 | time point at which maximum effect is achieved ([1]; dose 1%): 6 h; Intraocular pressure difference (mmHg) ([1]; dose 1%): 5.2 mmHg |
| Cc1ccc(C(=O)OCc2ccc(C(CN)C(=O)Nc3ccc(-c4cn[nH]c4)cc3)cc2)c(C)c1 (centres unmarked) [Compound 12, 4-(1-((4-(1H-pyrazol-4-yl)phenyl)amino)-3-amino-1-oxopropan-2-yl) benzyl 2,4-dimethylbenzoate dihydrochloride] | 0.01 to 0.1 | 0.25 | 0.1 to 1 | > 1 | time point at which maximum effect is achieved ([1]; dose 0.25%): 6 h; Intraocular pressure difference (mmHg) ([1]; dose 0.25%): 2.0 mmHg |
| NCC(C(=S)Nc1ccc(-c2cn[nH]c2)cc1)c1ccccc1 (centres unmarked) [Compound 14, N-(4-(1H-pyrazol-4-yl)phenyl)-3-amino-2-phenylpropanethioamide dihydrochloride] | 0.001 to 0.01 | 0.5 | 0.1 to 1 | > 1 | time point at which maximum effect is achieved ([1]; dose 0.5%): 6 h; Intraocular pressure difference (mmHg) ([1]; dose 0.5%): 2.5 mmHg |
| [N-]=[N+]=NC(CN)C(=O)Nc1ccc(-c2cn[nH]c2)cc1 (centres unmarked) [Compound 1, N-(4-(1H-pyrazol-4-yl)phenyl)-3-amino-2-azidopropanamide dihydrochloride] | 0.1 to 1 | – | 0.1 to 1 | > 10 | – |
| NCC(C(=O)Nc1ccc(-c2cn[nH]c2)cc1)c1ccc(C=O)cc1 (centres unmarked) [Compound 13, N-(4-(1H-pyrazol-4-yl)phenyl)-3-amino-2-(4-formylphenyl)propanamide dihydrochloride] | – | – | 0.1 to 1 | > 1 | IC50 (ROCK1; read-out: ROCK1 IC50): < 0.001 µM |
| NC[C@@H](C(=O)Nc1ccc2cnccc2c1)c1ccc(CO)cc1 [AR-13503, reference compound] | – | – | 0.1 to 1 | – | IC50 (ROCK1; read-out: ROCK1 IC50): < 0.001 µM |
| N#C/N=C(/NCc1ccccc1)Nc1ccc(-c2cn[nH]c2)cc1 [Compound 16, 1-(4-(1H-pyrazol-4-yl)phenyl)-3-benzyl-2-cyanoguanidine hydrochloride] | – | – | > 10 | > 10 | IC50 (ROCK1; read-out: ROCK1 IC50): > 10 µM |
| NCC(C(=O)Nc1ccc(-c2cn[nH]c2)cc1)n1cc(-c2ccccc2)nn1 (centres unmarked) [Compound 2, dihydrochloride] | 0.01 to 0.1 | – | 0.1 to 1 | > 10 | – |
| NCC(C(=O)Nc1ccc(-c2cn[nH]c2)cc1F)c1ccccc1 (centres unmarked) [Compound 19, 3-amino-N-(2-fluoro-4-(1H-pyrazol-4-yl)phenyl)-2-phenylpropanamide dihydrochloride] | 0.01 to 0.1 | – | 0.1 to 1 | > 1 | – |
| NCC(C(=O)Nc1ccc(-c2cn[nH]c2)cc1)c1ccc(O)cc1 (centres unmarked) [Compound 9, N-(4-(1H-pyrazol-4-yl)phenyl)-3-amino-2-(4-hydroxyphenyl) propanamide dihydrochloride] | 0.001 to 0.01 | – | – | – | – |
| NCC(O)C(=O)Nc1ccc(-c2cn[nH]c2)cc1 (centres unmarked) [Compound 3, N-(4-(1H-pyrazol-4-yl)phenyl)-3-amino-2-hydroxypropanamide dihydrochloride] | 0.1 to 1 | – | – | – | – |
| NCC(NC(=S)Nc1ccc(-c2cn[nH]c2)cc1)c1ccccc1 (centres unmarked) [Compound 15, 1-(4-(1H-pyrazol-4-yl)phenyl)-3-(2-amino-1-phenylethyl)thiourea dihydrochloride] | 0.1 to 1 | – | 0.1 to 1 | > 10 | – |
| NCCN(Cc1ccc(F)cc1)C(=O)c1ccc(-c2cn[nH]c2)cc1 [Compound 17, N-(2-aminoethyl)-N-(4-fluorobenzyl)-4-(1H-pyrazol-4-yl)benzamide dihydrochloride] | 0.1 to 1 | – | > 10 | > 10 | – |
| NCC(C(=O)Nc1ccc(-c2cn[nH]c2)cc1)c1ccc(CO)cc1 (centres unmarked) [Compound 11, N-(4-(1H-pyrazol-4-yl)phenyl)-3-amino-2-(4-(hydroxymethyl)phenyl)propenamide dihydrochloride] | 0.001 to 0.01 | 0.5 | 0.1 to 1 | – | time point at which maximum effect is achieved ([1]; dose 0.5%): 1 h; Intraocular pressure difference (mmHg) ([1]; dose 0.5%): 2.0 mmHg |
| NC[C@H](C(=O)Nc1ccc(-c2cn[nH]c2)cc1)c1ccccc1 [Compound 21, (R)—N-(4-(1H-pyrazol-4-yl)phenyl)-3-amino-2-phenylpropanamide dihydrochloride] | 0.1 to 1 | – | 0.1 to 1 | – | time point at which maximum effect is achieved ([1]; dose 0.03%): 8 h; Intraocular pressure difference (mmHg) ([1]; dose 0.03%): 1.3 mmHg |
| NCC(Oc1ccc(C(F)(F)F)cc1)C(=O)Nc1ccc(-c2cn[nH]c2)cc1 (centres unmarked) [Compound 5, N-(4-(1H-pyrazol-4-yl)phenyl)-3-amino-2-(4-(trifluoromethyl)phenoxy)propenamide dihydrochloride] | 0.001 to 0.01 | 1 | 0.1 to 1 | – | time point at which maximum effect is achieved ([1]; dose 1%): 6 h; Intraocular pressure difference (mmHg) ([1]; dose 1%): 1.5 mmHg |
